The MIC is the lowest concentration found to suppress growth. A high value points to a need for much substance.

Format in all cases: functional
Assay [1] concerns Staphylococcus aureus. The assay can be described thus: Antibacterial activity against Staphylococcus aureus MTCC 902 after 24 hrs by two-fold dilution method. As to conditions: MTCC 902, 24 h.
The test system of assay [2] is Pseudomonas aeruginosa. The assay can be described thus: Antibacterial activity against Pseudomonas aeruginosa MTCC 2642 after 24 hrs by two-fold dilution method. Conditions: MTCC 2642, 24 h.
Assay [3] has as its system Klebsiella pneumoniae. The assay can be described thus: Antibacterial activity against Klebsiella pneumoniae MTCC 109 after 24 hrs by two-fold dilution method. Conditions: MTCC 109, 24 h.
For assay [4], the system named is Bacillus subtilis. Description: Antibacterial activity against Bacillus subtilis MTCC 2756 after 24 hrs by two-fold dilution method. Conditions: MTCC 2756, 24 h.
Assay [5] relates to Staphylococcus epidermidis. Description: Antibacterial activity against Staphylococcus epidermidis MTCC 435 at MIC after overnight incubation by disc diffusion method.
Assay [6] deals with Staphylococcus aureus. The assay can be described thus: Antibacterial activity against Staphylococcus aureus MTCC 902 at MIC after overnight incubation by disc diffusion method. For orientation: A growth-free zone around the sample is the usual read-out of agar diffusion tests.
In assay [7] the test system is Pseudomonas aeruginosa. Description: Antibacterial activity against Pseudomonas aeruginosa MTCC 2642 at MIC after overnight incubation by disc diffusion method.
Assay [8] relates to Klebsiella pneumoniae. The assay can be described thus: Antibacterial activity against Klebsiella pneumoniae MTCC 109 at MIC after overnight incubation by disc diffusion method.
The subject of assay [9] is Escherichia coli. The assay can be described thus: Antibacterial activity against Escherichia coli MTCC 2622 at MIC after overnight incubation by disc diffusion method.
Assay [10] has as its system Bacillus subtilis. The assay can be described thus: Antibacterial activity against Bacillus subtilis MTCC 2756 at MIC after overnight incubation by disc diffusion method.
Assay [11] deals with Staphylococcus epidermidis. The assay can be described thus: Antibacterial activity against Staphylococcus epidermidis MTCC 435 after 24 hrs by two-fold dilution method. As to conditions: MTCC 435, 24 h.
In assay [12] the test system is Trichophyton rubrum. Description: Antifungal activity against Trichophyton rubrum MTCC 296 at MIC after 48 hrs by disc diffusion method.
Assay [13] relates to Penicillium expansum. Description: Antifungal activity against Penicillium expansum MTCC 2006 at MIC after 48 hrs by disc diffusion method.
In assay [14] the test system is Candida tropicalis. The assay can be described thus: Antifungal activity against Candida tropicalis MTCC 184 at MIC after 48 hrs by disc diffusion method.
The test system of assay [15] is Candida albicans. Description: Antifungal activity against Candida albicans MTCC 3017 at MIC after 48 hrs by disc diffusion method.
Assay [16] relates to Aspergillus tubingensis. The assay can be described thus: Antifungal activity against Aspergillus tubingensis MTCC 2425 at MIC after 48 hrs by disc diffusion method.
Assay [17] relates to Aspergillus niger. Description: Antifungal activity against Aspergillus niger MTCC 277 at MIC after 48 hrs by disc diffusion method.
In assay [18] the test system is Aspergillus fumigatus. The assay can be described thus: Antifungal activity against Aspergillus fumigatus MTCC 3376 at MIC after 48 hrs by disc diffusion method.
Assay [19] relates to Aspergillus flavus. Description: Antifungal activity against Aspergillus flavus MTCC 183 at MIC after 48 hrs by disc diffusion method.
Assay [20] deals with Trichophyton rubrum. The assay can be described thus: Antifungal activity against Trichophyton rubrum MTCC 296 at 30 degC after 72 hrs by microbroth dilution technique. Conditions: MTCC 296, 72 h. A general note: In broth dilution the organism is exposed to a series of concentrations in liquid medium.
Assay [21] relates to Penicillium expansum. Description: Antifungal activity against Penicillium expansum MTCC 2006 at 30 degC after 72 hrs by microbroth dilution technique. Conditions: MTCC 2006, 72 h.
In assay [22] the test system is Candida tropicalis. The assay can be described thus: Antifungal activity against Candida tropicalis MTCC 184 at 37 degC after 48 hrs by microbroth dilution technique. As to conditions: MTCC 184, 48 h.
In assay [23] the test system is Candida albicans. Description: Antifungal activity against Candida albicans MTCC 3017 at 37 degC after 48 hrs by microbroth dilution technique. Conditions: MTCC 3017, 48 h.
In assay [24] the test system is Aspergillus tubingensis. The assay can be described thus: Antifungal activity against Aspergillus tubingensis MTCC 2425 at 30 degC after 72 hrs by microbroth dilution technique. Conditions: MTCC 2425, 72 h.
Assay [25] has as its system Aspergillus niger. Description: Antifungal activity against Aspergillus niger MTCC 277 at 30 degC after 72 hrs by microbroth dilution technique. Conditions: MTCC 277, 72 h.
Assay [26] deals with Aspergillus fumigatus. The assay can be described thus: Antifungal activity against Aspergillus fumigatus MTCC 3376 at 30 degC after 72 hrs by microbroth dilution technique. As to conditions: MTCC 3376, 72 h.
Assay [27] relates to Aspergillus flavus. Description: Antifungal activity against Aspergillus flavus MTCC 183 at 30 degC after 72 hrs by microbroth dilution technique. As to conditions: MTCC 183, 72 h.
The subject of assay [28] is Escherichia coli. The assay can be described thus: Antibacterial activity against Escherichia coli MTCC 2622 after 24 hrs by two-fold dilution method. As to conditions: MTCC 2622, 24 h.
The subject of assay [29] is Penicillium expansum. The assay can be described thus: Ratio of amphotericin B MIC to compound MIC for Penicillium expansum MTCC 2006.

Structures are written as SMILES. Converted amounts (≈) assume the structure as drawn.

Turning to `O=C(O)c1cn(C2CC2)c2cc(N3CCNCC3)c(F)cc2c1=O` [CIPROFLOXACIN], the MIC in the assay on Staphylococcus aureus [1] is 1 µg/mL (≈ 3.02 µM); against Pseudomonas aeruginosa [2] it was 1 µg/mL (≈ 3.02 µM); with Klebsiella pneumoniae [3], 0.5 µg/mL (≈ 1.51 µM); in the assay on Bacillus subtilis [4] it was 2 µg/mL (≈ 6.04 µM); in assay [11], 0.25 µg/mL (≈ 0.754 µM). The “diameter of the inhibition zone (DIZ)” value is listed as 31 mm in [5]; 31 mm with Staphylococcus aureus [6]; 33 mm with Pseudomonas aeruginosa [7]; 33 mm in the assay with Klebsiella pneumoniae [8]; 32 mm in the assay with Escherichia coli [9]; 30 mm in the assay on Bacillus subtilis [10].

On to `C[C@@H]1[C@H](O)[C@@H](C)/C=C/C=C/C=C/C=C/C=C/C=C/C=C/[C@H](O[C@@H]2O[C@H](C)[C@@H](O)[C@H](N)[C@@H]2O)C[C@@H]2O[C@](O)(C[C@@H](O)C[C@@H](O)[C@H](O)CC[C@@H](O)C[C@@H](O)CC(=O)O[C@H]1C)C[C@H](O)[C@H]2C(=O)O` [AMPHOTERICIN B], for which the “diameter of the inhibition zone (DIZ)” value is reported as 29 mm in the assay with Trichophyton rubrum [12]; 20 mm in the assay on Penicillium expansum [13]; 24 mm in the assay on Candida tropicalis [14]; 31 mm in the assay with Candida albicans [15]; 30 mm in the assay on Aspergillus tubingensis [16]; 26 mm in the assay on Aspergillus niger [17]. Also, the “diameter of the inhibition zone (DIZ)” value came out at 25 mm in the assay with Aspergillus fumigatus [18] and 22 mm in the assay with Aspergillus flavus [19]. Also, the MIC against Trichophyton rubrum [20] is 4 µg/mL (≈ 4.33 µM); in the assay with Penicillium expansum [21] it was 64 µg/mL (≈ 69.3 µM); against Candida tropicalis [22] it was 8 µg/mL (≈ 8.66 µM); in the assay with Candida albicans [23], 16 µg/mL (≈ 17.3 µM); in the assay with Aspergillus tubingensis [24], 64 µg/mL (≈ 69.3 µM); with Aspergillus niger [25], 32 µg/mL (≈ 34.6 µM). Also, the MIC with Aspergillus fumigatus [26] and in the assay with Aspergillus flavus [27] was 16 µg/mL (≈ 17.3 µM) in each case.

Consider `O=C(O)C[C@@H]1NC[C@@H]2CCCN2C1=O`, for which the MIC in the assay with Staphylococcus aureus [1] worked out at 250 µg/mL (≈ 1260 µM); with Pseudomonas aeruginosa [2], 125 µg/mL (≈ 631 µM); in the assay with Klebsiella pneumoniae [3] it was 32 µg/mL (≈ 161 µM); against Escherichia coli [28] it was 64 µg/mL (≈ 323 µM); in the assay on Bacillus subtilis [4], 125 µg/mL (≈ 631 µM); against Trichophyton rubrum [20], 8 µg/mL (≈ 40.4 µM). The MIC was found to be 500 µg/mL (≈ 2520 µM) against Penicillium expansum [21]; 125 µg/mL (≈ 631 µM) in the assay with Candida tropicalis [22]; 250 µg/mL (≈ 1260 µM) with Candida albicans [23]; 125 µg/mL (≈ 631 µM) against Aspergillus tubingensis [24]; 64 µg/mL (≈ 323 µM) in the assay with Aspergillus niger [25]; 250 µg/mL (≈ 1260 µM) in the assay with Aspergillus fumigatus [26]. Further, the MIC against Aspergillus flavus [27] stood at 32 µg/mL (≈ 161 µM); in assay [11] it was 64 µg/mL (≈ 323 µM). Besides, the “diameter of the inhibition zone (DIZ)” value with Trichophyton rubrum [12] is reported as 28 mm; in the assay on Penicillium expansum [13] it was 13 mm; with Candida tropicalis [14] it was 14 mm; with Candida albicans [15], 15 mm; in the assay on Aspergillus tubingensis [16], 21 mm; in the assay on Aspergillus niger [17], 19 mm. Moreover, the “diameter of the inhibition zone (DIZ)” value with Aspergillus fumigatus [18] is on record as 18 mm; with Aspergillus flavus [19] it was 24 mm; in assay [5] it was 23 mm; with Staphylococcus aureus [6], 16 mm; in the assay with Pseudomonas aeruginosa [7], 14 mm; in the assay on Klebsiella pneumoniae [8], 17 mm. The results for the “diameter of the inhibition zone (DIZ)” value in the assay on Escherichia coli [9] and with Bacillus subtilis [10] were 19 mm and 15 mm, respectively.

`O=C(O)C[C@@H]1NC(=O)[C@@H]2CCCN2C1=O`: the MIC with Staphylococcus aureus [1] was determined as 64 µg/mL (≈ 302 µM); in the assay on Pseudomonas aeruginosa [2], 16 µg/mL (≈ 75.4 µM); against Klebsiella pneumoniae [3], 8 µg/mL (≈ 37.7 µM); in the assay on Escherichia coli [28] it was 16 µg/mL (≈ 75.4 µM); against Bacillus subtilis [4], 32 µg/mL (≈ 151 µM); against Trichophyton rubrum [20], 2 µg/mL (≈ 9.42 µM). Moreover, the minimum inhibitory concentration (MIC) stood at 8 µg/mL (≈ 37.7 µM) in the assay with Penicillium expansum [21]; 4 µg/mL (≈ 18.8 µM) with Candida tropicalis [22]; 8 µg/mL (≈ 37.7 µM) in the assay on Candida albicans [23]; 32 µg/mL (≈ 151 µM) in the assay with Aspergillus tubingensis [24]; 16 µg/mL (≈ 75.4 µM) in the assay on Aspergillus niger [25]; 32 µg/mL (≈ 151 µM) against Aspergillus fumigatus [26]. Moreover, the minimal inhibitory concentration (MIC) is 16 µg/mL (≈ 75.4 µM) against Aspergillus flavus [27] and 64 µg/mL (≈ 302 µM) in [11]. Besides, the “diameter of the inhibition zone (DIZ)” value came to 38 mm in the assay with Trichophyton rubrum [12]; 29 mm in the assay on Penicillium expansum [13]; 33 mm in the assay with Candida tropicalis [14]; 26 mm in the assay on Candida albicans [15]; 25 mm in the assay with Aspergillus tubingensis [16]; 22 mm in the assay on Aspergillus niger [17]. Also, the “diameter of the inhibition zone (DIZ)” value in the assay with Aspergillus fumigatus [18] worked out at 23 mm; with Aspergillus flavus [19], 28 mm; in assay [5], 24 mm; in the assay with Staphylococcus aureus [6], 21 mm; in the assay with Pseudomonas aeruginosa [7] it was 26 mm; in the assay with Klebsiella pneumoniae [8], 31 mm. For the same molecule, the “diameter of the inhibition zone (DIZ)” value turned out to be 26 mm with Escherichia coli [9] and 24 mm in the assay with Bacillus subtilis [10]. Further, the Ratio in the assay with Penicillium expansum [29] is 8.

These data come from ChEMBL document CHEMBL2424562, “A comparative study of antimicrobial properties of cyclo(l-Pro- l-Asp) with its 2-ketopiperazine analog” (2013).
